Test results taken from paper PMC9144329, “Multitarget Action of Xanthones from Garcinia mangostana against α-Amylase, α-Glucosidase and Pancreatic Lipase” (Molecules, 2022).
Where two headings read alike, the source gives them in different places.

How the values were obtained:
[1] = target: α-glucosidase; conditions: cited from earlier work
[2] = target: T1, α-glucosidase (AG) type I from Saccharomyces cerevisiae (Saccharomyces cerevisiae, UniProt P53341); assay: biochemical
[3] = target: T2, α-amylase (AA) type VI-B from porcine pancreas (Sus scrofa, UniProt P00690); assay: AA inhibition assay; conditions: for IC50: α-Amylase IC50 (µM), evaluated range 6.25 µM–1000 µM, mean of n = 3 ± SD
T2 sequence (P00690 16-511): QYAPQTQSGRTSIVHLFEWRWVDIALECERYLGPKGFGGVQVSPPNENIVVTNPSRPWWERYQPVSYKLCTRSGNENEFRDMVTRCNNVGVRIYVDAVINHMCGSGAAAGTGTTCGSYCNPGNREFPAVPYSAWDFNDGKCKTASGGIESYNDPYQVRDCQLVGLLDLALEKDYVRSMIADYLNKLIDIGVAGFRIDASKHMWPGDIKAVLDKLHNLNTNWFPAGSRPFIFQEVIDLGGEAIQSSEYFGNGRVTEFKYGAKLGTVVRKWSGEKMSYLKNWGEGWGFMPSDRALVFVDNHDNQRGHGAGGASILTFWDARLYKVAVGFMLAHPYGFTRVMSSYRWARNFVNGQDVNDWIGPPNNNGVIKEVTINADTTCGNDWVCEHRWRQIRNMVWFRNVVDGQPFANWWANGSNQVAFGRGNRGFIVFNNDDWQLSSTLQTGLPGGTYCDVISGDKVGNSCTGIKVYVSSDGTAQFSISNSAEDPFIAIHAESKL

[4] = target: T3, pancreatic lipase type II (PL) from porcine pancreas (Sus scrofa, UniProt P00591); assay: PL inhibition assay; type: biochemical; conditions: for IC50: evaluated range 6.25 µM–1000 µM, mean of n = 3 ± SD
T3 construct: pancreatic lipase type II (PL) from porcine pancreas; purchased Sigma-Aldrich L-SLBD2433V; host or cells: porcine pancreas
T3 sequence (P00591 1-450): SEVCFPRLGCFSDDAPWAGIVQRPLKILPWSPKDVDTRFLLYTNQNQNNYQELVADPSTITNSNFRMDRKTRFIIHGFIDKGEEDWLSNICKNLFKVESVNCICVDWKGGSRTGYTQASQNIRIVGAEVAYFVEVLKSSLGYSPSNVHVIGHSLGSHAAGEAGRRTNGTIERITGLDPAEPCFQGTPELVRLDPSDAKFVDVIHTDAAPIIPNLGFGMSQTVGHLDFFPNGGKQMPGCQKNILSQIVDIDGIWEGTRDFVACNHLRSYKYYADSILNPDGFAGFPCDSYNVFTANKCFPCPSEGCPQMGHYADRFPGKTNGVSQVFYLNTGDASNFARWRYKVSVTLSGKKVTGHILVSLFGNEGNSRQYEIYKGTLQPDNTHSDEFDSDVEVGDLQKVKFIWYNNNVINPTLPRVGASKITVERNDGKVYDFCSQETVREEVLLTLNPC

[5] = system: PL; conditions: cited from earlier work
[6] = target: T1, α-glucosidase (AG) type I from Saccharomyces cerevisiae; assay: biochemical; type: biochemical; design: purchased Sigma-Aldrich L-SLBX6245
[7] = target: T3, pancreatic lipase type II (PL) from porcine pancreas; assay: Kinetic study on PL; type: biochemical; conditions: for Ki: substrate p-nitrophenyl dodecanoate
[8] = target: T2, α-amylase (AA) type VI-B from porcine pancreas; assay: Kinetic study on AA; type: biochemical; design: α-amylase (AA) type VI-B from porcine pancreas; purchased Sigma-Aldrich L-SLBP4061V; host or cells: porcine pancreas; conditions: for Ki: substrate starch
[9] = system: α-amylase; conditions: cited from earlier work; for % inhibition of AA, previous studies: at a concentration of 100 µM
[10] = target: T1, α-glucosidase (AG) type I from Saccharomyces cerevisiae
[11] = ref 39, read-out: IC50 against AG, Ryu and collaborators
[12] = α-Glucosidase IC50 (µM), evaluated range 6.25 µM–1000 µM, mean of n = 3 ± SD
[13] = ref 17, 37, read-out: IC50 against PL, previous studies
[14] = substrate p-nitrophenyl-α-D-glucopyranoside, read-out: α-Glucosidase Ki
[15] = ref 10, read-out: IC50 against AG, Li and collaborators
[16] = ref 53, read-out: IC50 against AG, Vongsak and collaborators
[17] = ref 31-34, read-out: IC50 against PL
[18] = ref 31-34, read-out: IC50 against α-amylase

T1 sequence (P53341 whole entry): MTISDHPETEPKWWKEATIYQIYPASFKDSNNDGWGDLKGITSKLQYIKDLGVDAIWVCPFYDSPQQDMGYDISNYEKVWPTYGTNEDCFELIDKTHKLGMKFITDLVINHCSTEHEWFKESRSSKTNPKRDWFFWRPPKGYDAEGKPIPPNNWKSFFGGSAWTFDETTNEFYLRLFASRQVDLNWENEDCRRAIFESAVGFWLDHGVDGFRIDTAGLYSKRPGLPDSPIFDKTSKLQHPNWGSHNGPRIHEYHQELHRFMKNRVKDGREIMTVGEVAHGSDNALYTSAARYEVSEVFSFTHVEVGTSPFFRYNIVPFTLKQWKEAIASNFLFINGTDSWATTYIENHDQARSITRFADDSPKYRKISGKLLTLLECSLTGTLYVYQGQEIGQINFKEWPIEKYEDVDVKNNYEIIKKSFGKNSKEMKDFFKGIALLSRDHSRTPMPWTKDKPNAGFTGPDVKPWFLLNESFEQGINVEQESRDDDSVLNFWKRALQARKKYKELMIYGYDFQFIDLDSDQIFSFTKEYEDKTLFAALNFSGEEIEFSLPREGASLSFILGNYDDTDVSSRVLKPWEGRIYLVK

Compound | IC50 [1, 11] | IC50 [2, 12] | IC50 [3] | IC50 [4] | Ki [6, 14] | type of inhibition against PL (in words) [7] | Ki [7] | type of inhibition on AA (in words) [8] | Ki [8] | further results
COc1c(O)cc2oc3cc4c(c(O)c3c(=O)c2c1CC=C(C)C)C=CC(C)(C)O4 [Compound 1, 9-hydroxycalabaxanthone] | 34.2 µM | 157 ± 2.1 µM | > 1000 µM | 138 ± 6.8 µM | 154 µM | non-competitive inhibitors | 138 µM |  |  | inhibitory activity on AA (in words) [3]: completely lost; IC50 [5, 13]: 12 µM; type of inhibition of AG (in words) [6]: uncompetitive inhibitor
CC(C)=CCc1c(O)c(CC=C(C)C)c2oc3c(O)cccc3c(=O)c2c1O [Compound 2, 8-deoxygartanin] | 21.5 µM | 248 ± 4 µM | 166 ± 4.1 µM | 326 ± 7.1 µM | 248 µM | non-competitive inhibitors | 326 µM | non-competitive type of inhibitor | 166 µM | IC50 [5, 13]: 50 µM
CC(C)=CCc1c(O)c(CC=C(C)C)c2oc3c(O)ccc(O)c3c(=O)c2c1O [Compound 3, gartanin] | 10 µM | 124 ± 8.2 µM | > 1000 µM | 135 ± 1.5 µM | 124 µM | uncompetitive inhibitors | 130 µM |  |  | IC50 [5, 13]: 12 µM
COc1c(O)cc2oc3cc(O)c(CC=C(C)C)c(O)c3c(=O)c2c1CC=C(C)C [Compound 4, α-mangostin] | 5 µM |  | 318 ± 4.3 µM | 50.6 ± 6.7 µM |  | non-competitive inhibitors | 50.6 µM | competitive type inhibitors | 240 µM | IC50 [1, 15]: 10 µM; IC50 [1, 16]: 29.2 µM; IC50 [2]: 31.6 ± 2.6 µM; % inhibition of AA, previous studies [9]: 60%; IC50 ([9]; ref 17, read-out: IC50 against AA, previous studies): 29.6 µM; IC50 [5, 13]: 47.3 µM; IC50 [5, 17]: 5 µM; Ki [6]: 31.6 µM
CC(C)=CCc1c(O)cc2oc3cc(O)c(O)c(CC=C(C)C)c3c(=O)c2c1O [Compound 5, γ-mangostin] | 1.5 µM | 84.7 ± 6.7 µM | 333 ± 4.5 µM | 67.1 ± 2.8 µM |  |  | 57.2 µM | competitive type inhibitors | 139 µM | IC50 [1, 15]: 5 µM; IC50 [1, 16]: 4.2 µM; % inhibition of AA, previous studies [9]: 67.3%; IC50 [5, 17]: 10 µM; Ki [6]: 84.7 µM
COc1cc2oc3cc(OC)c(OC)c(CC=C(C)C)c3c(=O)c2c(O)c1CC=C(C)C [Compound 6, fuscaxanthone C] |  | 33.3 ± 4.1 µM | 164.4 ± 0.9 µM | 69.2 ± 4.9 µM | 0.3 µM | mixed inhibitors | 69.2 µM | competitive type inhibitors | 28.6 µM | melting point: 118 to 120 °C; type of inhibition of AG (in words) [6]: competitive inhibitors
COc1c(O)cc2oc3cc4c(c(O)c3c(=O)c2c1CC=C(C)C)CCC(C)(C)O4 [Compound 7, 3-isomangostin] |  |  | > 1000 µM | > 1000 µM | 37.2 µM |  |  |  |  | IC50 [2]: 37.2 ± 4.1 µM; inhibitory activity on AA (in words) [3]: completely lost; inhibition in the catalytic activity of PL (in words) [4]: did not cause any inhibition
CC1(C)CCc2c(cc3oc4cc(O)c5c(c4c(=O)c3c2O)CCC(C)(C)O5)O1 [Compound 8, BR-xanthone A] |  |  | > 1000 µM | > 1000 µM |  |  |  |  |  | melting point: 160 to 162 °C; IC50 [2]: > 1000 µM; inhibitory activity on AA (in words) [3]: completely lost; inhibition in the catalytic activity of PL (in words) [4]: did not cause any inhibition; inhibition in the catalytic activity of AG (in words) [10]: did not cause any inhibition
COc1c(O)cc2oc3cc(O)c(CCC(C)C)c(O)c3c(=O)c2c1CCC(C)C [Compound 9, tetrahydro-α-mangostin] |  |  | 90.1 ± 6 µM | 454.6 ± 1.9 µM |  | mixed inhibitors | 405 µM | competitive type inhibitors | 90.1 µM | IC50 [2]: 34.2 ± 1.8 µM; Ki [6]: 34.2 µM; type of inhibition of AG (in words) [6]: competitive inhibitors
CCCCCOc1cc2oc3cc(OCCCCC)c(OC)c(CC=C(C)C)c3c(=O)c2c(O)c1CC=C(C)C [Compound 10, 3,6-di-pentoxy-α-mangostin] |  | > 1000 µM | > 1000 µM | > 1000 µM |  |  |  |  |  | inhibition in the catalytic activity of PL (in words) [4]: did not cause any inhibition; inhibition in the catalytic activity of AG (in words) [10]: did not cause any inhibition
COc1cc2oc3c(C)c(OC)c(CC=C(C)C)c(O)c3c(=O)c2c(CC=C(C)C)c1OC [Compound 11, 3,6-di-methoxy-4-methyl-α-mangostin] |  | > 1000 µM | > 1000 µM | 59.4 ± 3.8 µM |  | mixed inhibitors | 59.4 µM |  |  | inhibitory activity on AA (in words) [3]: completely annuls the activity; inhibition in the catalytic activity of AG (in words) [10]: did not cause any inhibition
O=C(c1cc(O)ccc1O)c1c(O)cc(O)cc1O[C@@H]1O[C@H](CO)[C@@H](O)[C@H](O)[C@H]1O [Garcimangophenone B, reference compound] |  |  |  |  |  |  |  |  |  | IC50 [9, 18]: 12.2 µM
Garcimangophenones A [Garcimangophenone A, reference compound] |  |  |  |  |  |  |  |  |  | IC50 [9, 18]: 9.3 µM
mangoxanthone A [reference compound] |  |  |  |  |  |  |  |  |  | IC50 ([1]; ref 31-34, read-out: IC50 against α-glucosidase): 29.1 µM; IC50 [9, 18]: 22.7 µM
